According to patent publication US5599815A, “Antipsychotic benzoisothiazolyl piperazine derivatives” (Meiji Seika Kabushiki Kaisha, priority 1993, dated 1997):
Read-outs that look alike come from different tables or passages of the source.

Experiments:
[1] = tested on: hyper locomotion induced by methamphetamine in mice; assay: Anti-methamphetamine effect (antipsychotic activity): suppression of hyper locomotion induced by methamphetamine in mice; type: in vivo, mice (male ddY); conditions: ip; for ED50: Mus musculus, read-out: Anti-methamphetamine effect ED50
Experimental: Antipsychotic activity was evaluated on the basis of the suppressive activity on the stimulation of hyper locomotion induced by methamphetamine in mice. Male ddY mice having a weight of 25-35 g were divided into groups consisting of 3-6 animals. The mouse was subcutaneously administered with methamphetamine (2 mg/kg) fifteen minutes before the compound of the present invention was intraperitoneally administered. After further fifteen minutes, the animal was then placed in an apparatus to measure the locomotion for thirty minutes. (MUROMACHI KIKAI, ANIMEX AUTO MK-110) The effects of haloperidol and chlorpromazine were also evaluated as controls.

[2] = Cataleptogenic activity (extrapyramidal side effect): catalepsy provoking effect in mice; conditions: mouse, in vivo, ip
Experimental: (§1) The extrapyramidal activity was evaluated on the basis of the catalepsy provoking effect as a representative pharmacological evaluation method of the extrapyramidal effect. Male ddY mice having a body weight of 25-35 g which were divided into groups consisting of 3-6 animals were subjected to the test. The compound of the present invention was administered intraperitoneally to observe catalepsy after 20, 30 and 40 minutes, respectively. Catalepsy was judged as positive in such cases that a mouse whose front paw was compulsorily hung up on an iron bar having a diameter of 1 mm and horizontally laid at a height of 3 cm remained in such a strained posture for more than 30 seconds.

[3] = tested on: catalepsy in mice; assay: as above; conditions: ip
Experimental: as §1

[4] = male ddY mice, methamphetamine 2 mg/kg sc 15 min before compound, locomotion measured for 30 min

CN(C)CCCN1c2ccccc2Sc2ccc(Cl)cc21 [Chlorpromazine, chlorpromazine]
ED50 [1]: 1.05 mg/kg
anti-methamphetamine activity, that is the anti-psychotic activity (in words) ([1]; male ddY mice): have the anti-methamphetamine activity
TD50 [2]: 6.2 mg/kg
catalepsy provoking effect / extrapyramidal side effect (in words) ([3]; male ddY mice): strong catalepsy provoking effect

c1ccc2c(N3CCN(CCCCn4c5ccccc5c5ccccc54)CC3)nsc2c1 [Example 2, 9-[4-[4-(1,2-benzisothiazol-3-yl)-1-piperazinyl]butyl]carbazole]
ED50 [1, 4]: 1.15 mg/kg
anti-methamphetamine activity, that is the anti-psychotic activity (in words) ([1]; male ddY mice): have the anti-methamphetamine activity
TD50 [2]: > 100 mg/kg
catalepsy provoking effect / extrapyramidal side effect (in words) ([3]; mouse, in vivo): very weak extrapyramidal side effect

O=c1ccc2ccccc2n1CCCN1CCN(c2nsc3ccccc23)CC1 [Example 5, 1-[4-[4-(1,2-benzisothiazol-3-yl)-1-piperazinyl]propyl]-2(1H)-quinolinone]
ED50 [1, 4]: 0.92 mg/kg
anti-methamphetamine activity, that is the anti-psychotic activity (in words) ([1]; male ddY mice): have the anti-methamphetamine activity
TD50 [2]: 83.3 mg/kg
catalepsy provoking effect / extrapyramidal side effect (in words) ([3]; mouse, in vivo): very weak extrapyramidal side effect

O=C(CCCN1CCC(O)(c2ccc(Cl)cc2)CC1)c1ccc(F)cc1 [Haloperidol, haloperidol]
ED50 [1]: 0.16 mg/kg
anti-methamphetamine activity, that is the anti-psychotic activity (in words) ([1]; male ddY mice): have the anti-methamphetamine activity
TD50 [2]: 1.3 mg/kg
catalepsy provoking effect / extrapyramidal side effect (in words) ([3]; male ddY mice): strong catalepsy provoking effect
